Measured values taken from ChEMBL document CHEMBL1131774, “Synthesis of water-soluble phenytoin prodrugs” (Bioorg Med Chem Lett, 1999).

How the values were obtained:
Assay type in all cases: ADME, organism-based
Details in all cases: rat, read-out: Hydrolysis
[1] = Compound was tested for percent hydrolysis in whole blood after a time interval of 180.0 min
[2] = Compound was tested for percent hydrolysis in whole blood after a time interval of 0.5 min
[3] = Compound was tested for percent hydrolysis in whole blood after a time interval of 7.0 min
[4] = Compound was tested for percent hydrolysis in whole blood, after a time interval of 15.0 min
[5] = Compound was tested for percent hydrolysis in whole blood after a time interval of 60.0 min
[6] = Compound was tested for percent hydrolysis in whole blood after a time interval of 2.0 min
[7] = Compound was tested for percent hydrolysis in whole blood after a time interval of 5.0 min

Row | Compound | metabolised at 3 h [1] | metabolised at 0.5 min [2] | metabolised at 7 min [3] | metabolised at 0.25 h [4] | metabolised at 1 h [5] | metabolised at 2 min [6] | metabolised at 5 min [7]
1 | CC(OC(=O)CCCC(=O)O)N1C(=O)NC(c2ccccc2)(c2ccccc2)C1=O (stereo unspecified) | 45.1% | 15% | 36.9% | 37.2% | 39.6% | 26.7% | –
2 | CC(OC(=O)CCC(=O)O)N1C(=O)NC(c2ccccc2)(c2ccccc2)C1=O (stereo unspecified) | 69.2% | 25.7% | 52.8% | 55.9% | 59.6% | 42.4% | –

Next, values leading:

Row | metabolised at 3 h [1] | metabolised at 0.5 min [2] | metabolised at 7 min [3] | metabolised at 0.25 h [4] | metabolised at 1 h [5] | metabolised at 2 min [6] | metabolised at 5 min [7] | Compound
3 | – | 28.7% | – | 93.6% | 99.3% | 80.1% | 91% | O=C(CN1CCOCC1)OCN1C(=O)NC(c2ccccc2)(c2ccccc2)C1=O
4 | – | 49.2% | – | – | – | 96.5% | 97.5% | O=C(CN1CCCCC1)OCN1C(=O)NC(c2ccccc2)(c2ccccc2)C1=O
5 | 95.3% | 7.95% | 25% | 45.4% | 87.5% | 11.6% | – | O=C1NC(c2ccccc2)(c2ccccc2)C(=O)N1COP(=O)(O)O [FOSPHENYTOIN SODIUM]
